Reference: patent US11352339B2 (MISSION THERAPEUTICS LIMITED, priority 2016, dated 2022)

Molecular target: USP30 (Homo sapiens (Human), UniProt Q70CQ3)
Assay: USP30 Biochemical IC50 Assay
Conditions: fluorescence polarisation, TAMRA labelled peptide linked to ubiquitin; 30 min pre-incubation, read after 2 h; read-out: IC50 range
Procedure, shortened: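 Fluorescence polarisation cleavage assay, duplicate wells: substrate is a TAMRA peptide joined to ubiquitin by an iso-peptide bond (50 nM), added after 30 min room-temperature compound–enzyme incubation. Readings at 540/590 nm immediately and at 2 h.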

Chain of USP30 (Q70CQ3 57-517): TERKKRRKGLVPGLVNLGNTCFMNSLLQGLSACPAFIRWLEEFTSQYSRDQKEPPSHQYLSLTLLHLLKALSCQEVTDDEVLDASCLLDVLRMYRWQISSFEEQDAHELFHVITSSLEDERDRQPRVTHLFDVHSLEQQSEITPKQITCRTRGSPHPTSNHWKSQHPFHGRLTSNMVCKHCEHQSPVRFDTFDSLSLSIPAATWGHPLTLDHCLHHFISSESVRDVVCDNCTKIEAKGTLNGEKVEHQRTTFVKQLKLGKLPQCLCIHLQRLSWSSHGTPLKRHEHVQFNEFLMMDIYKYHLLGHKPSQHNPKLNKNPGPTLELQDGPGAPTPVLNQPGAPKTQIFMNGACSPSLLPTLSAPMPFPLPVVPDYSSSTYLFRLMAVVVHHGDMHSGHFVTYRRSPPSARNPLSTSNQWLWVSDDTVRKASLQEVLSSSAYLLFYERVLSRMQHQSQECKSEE

| Structure (SMILES) | IC50 |
| --- | --- |
| N#Cc1cnn(-c2cncc(-c3nc([C@@H]4CCCN4C#N)no3)n2)c1 [Example 202, (S)-1-(6-(3-(1-Cyanopyrrolidin-2-yl)-1,2,4-oxadiazol-5-yl)pyrazin-2-yl)-1H-pyrazole-4-carbonitrile] | 0.1 to 1 µM |
| Cc1ccc(S(=O)(=O)NCc2ccccc2)cc1-c1ccc2oc([C@@H]3CCCN3C#N)nc2c1 [Example 139, (S)-N-Benzyl-3-(2-(1-cyanopyrrolidin-2-yl)-benzo[d]oxazol-5-yl)-4-methyl-benzenesulfonamide] | 1 to 10 µM |
| N#Cc1cc(-c2cncc(-c3nc([C@@H]4CCCN4C#N)no3)n2)ccn1 [Example 203, (S)-4-(6-(3-(1-Cyanopyrrolidin-2-yl)-1,2,4-oxadiazol-5-yl)pyrazin-2-yl)picolinonitrile] | < 0.1 µM |
| N#CN1CCC(c2noc(-c3cccc(-c4ccccc4)c3)n2)C1 (stereo not drawn) [Example 55] | < 0.1 µM |
| N#Cc1ccc(-c2nccc(-c3nc([C@@H]4CCCN4C#N)no3)n2)cn1 [Example 201, (S)-5-(4-(3-(1-Cyanopyrrolidin-2-yl)-1,2,4-oxadiazol-5-yl)pyrimidin-2-yl)picolinonitrile] | 0.1 to 1 µM |
| N#Cc1cccc(-c2ccc3oc([C@@H]4CCCN4C#N)nc3c2)c1F [Example 137, (S)-2-(5-(3-Cyano-2-fluorophenyl)-benzo[d]oxazol-2-yl)pyrrolidine-1-carbonitrile] | 1 to 10 µM |
| N#CN1CCC(c2cc(-c3ccc(-c4ccccc4)cn3)n[nH]2)C1 (stereo not drawn) [Example 194, 3-(5-(5-Phenylpyridin-2-yl)-1H-pyrazol-3-yl)pyrrolidine-1-carbonitrile] | < 0.1 µM |
| C[C@@H]1CN(C#N)C[C@H]1c1cc(-c2ccncc2)n[nH]1 (relative stereo) [Example 48, Trans-3-methyl-4-(3-(pyridin-4-yl)-1H-pyrazol-5-yl)pyrrolidine-1-carbonitrile] | 1 to 10 µM |
| N#Cc1ccccc1-c1cccc(-c2nc(C3CCCN3C#N)no2)c1 (stereo not drawn) [Example 155, 2-(5-(2′-Cyano-[1,1′-biphenyl]-3-yl)-1,2,4-oxadiazol-3-yl)pyrrolidine-1-carbonitrile] | 0.1 to 1 µM |
| CNC(=O)c1cccc(-c2cc(-c3nc(C4CCCN4C#N)no3)ccn2)c1 (stereo not drawn) [Example 171, 3-(4-(3-(1-Cyanopyrrolidin-2-yl)-1,2,4-oxadiazol-5-yl)pyridin-2-yl)-N-methylbenzamide] | 1 to 10 µM |
| C[C@@H]1CN(C#N)C[C@H]1c1cc(-c2ccccc2)n[nH]1 (relative stereo) [Example 49, Trans-3-methyl-4-(3-phenyl-1H-pyrazol-5-yl)pyrrolidine-1-carbonitrile] | 1 to 10 µM |
| COc1ncccc1-c1cccc(-c2nc(C3CCCN3C#N)no2)c1 (stereo not drawn) [Example 162, 2-(5-(3-(2-Methoxypyridin-3-yl)phenyl)-1,2,4-oxadiazol-3-yl)pyrrolidine-1-carbonitrile] | 0.1 to 1 µM |
| CC[C@@H]1CN(C#N)C[C@H]1c1cc(-c2cccc(-c3ccccc3)c2)n[nH]1 (relative stereo) [Example 43, trans-3-(3-([1,1′-biphenyl]-3-yl)-1H-pyrazol-5-yl)-4-ethylpyrrolidine-1-carbonitrile] | 0.1 to 1 µM |
| COc1cc(-c2cccc(-c3nc(C4CCCN4C#N)no3)c2)ccn1 (stereo not drawn) [Example 144, 2-(5-(3-(2-Methoxypyridin-4-yl)phenyl)-1,2,4-oxadiazol-3-yl)pyrrolidine-1-carbonitrile] | 1 to 10 µM |
| Cn1cc(-c2cccc(-c3nc(C4CCCN4C#N)no3)c2)cn1 (stereo not drawn) [Example 148, 2-(5-(3-(1-Methyl-1H-pyrazol-4-yl)phenyl)-1,2,4-oxadiazol-3-yl)pyrrolidine-1-carbonitrile] | 1 to 10 µM |
| CNC(=O)c1cc(-c2ccccc2)cc2oc([C@@H]3CCCN3C#N)nc12 [Example 122, (S)-2-(1-Cyanopyrrolidin-2-yl)-N-methyl-6-phenylbenzo[d]oxazole-4-carboxamide] | 10 to 100 µM |
| CC[C@@H]1CN(C#N)C[C@H]1c1cc(-c2cccc(-c3ccccc3)c2)n[nH]1 (single isomer, unassigned) [Example 45, Trans-3-(3-([1,1′-biphenyl]-3-yl)-1H-pyrazol-5-yl)-4-ethylpyrrolidine-1-carbonitrile] | 0.1 to 1 µM |

Second part, the molecule after the results:

| IC50 | Structure (SMILES) |
| --- | --- |
| 0.1 to 1 µM | N#Cc1ccc(-c2ccnc(-c3nc([C@@H]4CCCN4C#N)no3)c2)cc1 [Example 176, (S)-2-(5-(4-(4-Cyanophenyl)pyridin-2-yl)-1,2,4-oxadiazol-3-yl)pyrrolidine-1-carbonitrile] |
| 0.1 to 1 µM | N#CN1CCC(c2nc3cc(-c4ccc5[nH]ncc5c4)cnc3[nH]2)C1 (stereo not drawn) [Example 87, 3-(6-(1H-Indazol-5-yl)-3H-imidazo[4,5-b]pyridin-2-yl)pyrrolidine-1-carbonitrile] |
| 0.1 to 1 µM | COc1ccc(-c2cccc(-c3cc(C4CCN(C#N)C4)[nH]n3)c2)cc1 (stereo not drawn) [Example 30, 3-(3-(4′-Methoxy-[1,1′-biphenyl]-3-yl)-1H-pyrazol-5-yl)pyrrolidine-1-carbonitrile] |
| 1 to 10 µM | N#Cc1cccc(-c2ccc3oc([C@@H]4CCCN4C#N)nc3c2)n1 [Example 127, (S)-6-(2-(1-Cyanopyrrolidin-2-yl)benzo[d]oxazol-5-yl)picolinonitrile] |
| 1 to 10 µM | N#CN1CCC(c2nnc(-c3ccc4nc[nH]c4c3)[nH]2)C1 (stereo not drawn) [Example 107, 3-(5-(1H-Benzo[d]imidazol-6-yl)-4H-1,2,4-triazol-3-yl)pyrrolidine-1-carbonitrile] |
| < 0.1 µM | N#CN1CCC(c2cc(-c3ccc(-c4ncccn4)cn3)n[nH]2)C1 (stereo not drawn) [Example 195, 3-(3-(5-(Pyrimidin-2-yl)pyridin-2-yl)-1H-pyrazol-5-yl)pyrrolidine-1-carbonitrile] |
| 0.1 to 1 µM | N#CN1CCC(c2noc(-c3cc(Cl)cc(OC(F)(F)F)c3)n2)C1 (stereo not drawn) [Example 57, 3-(5-(3-Chloro-5-(trifluoromethoxy)phenyl)-1,2,4-oxadiazol-3-yl)pyrrolidine-1-carbonitrile] |
| 1 to 10 µM | N#CN1CCC(c2cc(-c3cccc(C(N)=O)c3)n[nH]2)C1 (stereo not drawn) [Example 6, 3-(5-(1-Cyanopyrrolidin-3-yl)-1H-pyrazol-3-yl)benzamide] |
| 1 to 10 µM | Cn1cnc(-c2cccc(-c3cc(C4CCN(C#N)C4)n[nH]3)c2)c1 (stereo not drawn) [Example 34, 3-(5-(3-(1-Methyl-1H-imidazol-4-yl)phenyl)-1H-pyrazol-3-yl)pyrrolidine-1-carbonitrile] |
| 0.1 to 1 µM | N#Cc1cccc(-c2ccnc(-c3nc(C4CCCN4C#N)no3)c2)c1 (stereo not drawn) [Example 172, 2-(5-(4-(3-Cyanophenyl)pyridin-2-yl)-1,2,4-oxadiazol-3-yl)pyrrolidine-1-carbonitrile] |
| 1 to 10 µM | N#CN1CC[C@@H](c2noc(C3CCN(c4ncccn4)CC3)n2)C1 [Example 64, (R)-3-(5-(1-(Pyrimidin-2-yl)piperidin-4-yl)-1,2,4-oxadiazol-3-yl)pyrrolidine-1-carbonitrile] |
| 0.1 to 1 µM | C[C@H]1CN(C#N)C[C@@H]1c1nc2cc(-c3ccccc3)cnc2[nH]1 (single isomer, unassigned) [Example 102, Trans-3-methyl-4-(6-phenyl-3H-imidazo[4,5-b]pyridin-2-yl)pyrrolidine-1-carbonitrile] |
| 1 to 10 µM | Cc1cn(-c2ccc3n(c2=O)CCN([C@@H]2CCN(C#N)C2)C3=O)cn1 [Example 121, (R)-3-(7-(4-Methyl-1H-imidazol-1-yl)-1,6-dioxo-1,3,4,6-tetrahydro-2H-pyrido[1,2-a]pyrazin-2-yl)pyrrolidine-1-carbonitrile] |
| 0.1 to 1 µM | N#Cc1cccc(C2CN(c3noc(C4CCN(C#N)C4)n3)C2)c1 (stereo not drawn) [Example 197, 3-(3-(3-(3-Cyanophenyl)azetidin-1-yl)-1,2,4-oxadiazol-5-yl)pyrrolidine-1-carbonitrile] |
| 1 to 10 µM | CC(C)Cn1cc(-c2ccc3nc(C4CCN(C#N)C4)[nH]c3c2)cn1 (stereo not drawn) [Example 78, 3-(6-(1-Isobutyl-1H-pyrazol-4-yl)-1H-benzo[d]imidazol-2-yl)pyrrolidine-1-carbonitrile] |
| 1 to 10 µM | N#CN1CCC(c2ncc(-c3ccccc3)c(=O)[nH]2)C1 (stereo not drawn) [Example 120, 3-(6-Oxo-5-phenyl-1,6-dihydropyrimidin-2-yl)pyrrolidine-1-carbonitrile] |
| 10 to 100 µM | Cn1c([C@@H]2CCCN2C#N)nc2cc(-c3ccccc3)ccc21 [Example 96, (S)-2-(1-Methyl-5-phenyl-1H-benzo[d]imidazol-2-yl)pyrrolidine-1-carbonitrile] |
| 0.1 to 1 µM | Cn1cc(-c2ccc(-c3nc(C4CCN(C#N)C4)no3)cc2)cn1 (stereo not drawn) [Example 66, 3-(5-(4-(1-Methyl-1H-pyrazol-4-yl)phenyl)-1,2,4-oxadiazol-3-yl)pyrrolidine-1-carbonitrile] |
| 1 to 10 µM | N#Cc1cccc(-c2ccc3nc([C@@H]4CCCN4C#N)oc3c2)n1 [Example 132, (S)-6-(2-(1-Cyanopyrrolidin-2-yl)benzo[d]oxazol-6-yl)picolinonitrile] |
| 0.1 to 1 µM | CNC(=O)c1cccc(-c2cnc3[nH]c(C4CCN(C#N)C4)nc3c2)c1 (single isomer, unassigned) [Example 93, 3-(2-(1-Cyanopyrrolidin-3-yl)-3H-imidazo[4,5-b]pyridin-6-yl)-N-methylbenzamide] |
| 1 to 10 µM | N#CN1CCC[C@H]1c1nc2ccc(-c3ccccc3)cc2[nH]1 [Example 94, (S)-2-(6-Phenyl-1H-benzo[d]imidazol-2-yl)pyrrolidine-1-carbonitrile] |
| 0.1 to 1 µM | COc1ccc(-c2cnc3[nH]c(C4CCN(C#N)C4)nc3c2)cn1 (stereo not drawn) [Example 86, 3-(6-(6-Methoxypyridin-3-yl)-3H-imidazo[4,5-b]pyridin-2-yl)pyrrolidine-1-carbonitrile] |
| 1 to 10 µM | Cc1ccc2cc(-c3nc(C4CCN(C#N)C4)no3)ccc2n1 (stereo not drawn) [Example 56, 3-(5-(2-Methylquinolin-6-yl)-1,2,4-oxadiazol-3-yl)pyrrolidine-1-carbonitrile] |
| 0.1 to 1 µM | N#CN1CCC(c2cc(NC(=O)c3ccccc3)n[nH]2)C1 (stereo not drawn) [Example 50, N-(3-(1-Cyanopyrrolidin-3-yl)-1H-pyrazol-5-yl)benzamide] |
| 0.1 to 1 µM | N#Cc1cccc(-c2cnc3[nH]c(C4CCN(C#N)C4)nc3c2)c1 (stereo not drawn) [Example 85, 3-(6-(3-Cyanophenyl)-3H-imidazo[4,5-b]pyridin-2-yl)pyrrolidine-1-carbonitrile] |
